A value given as a limit tells only on which side of the number the result lay.

The term IC50 denotes the concentration at which inhibition is half-maximal. Higher therefore signals weaker potency in that assay.

The target of this test is T1, Jarid1B (Homo sapiens, UniProt Q9UGL1).
T1 construct: purchased BPS Bioscience or custom made by MolecularThroughput 50121
T1 sequence (Q9UGL1 2-751): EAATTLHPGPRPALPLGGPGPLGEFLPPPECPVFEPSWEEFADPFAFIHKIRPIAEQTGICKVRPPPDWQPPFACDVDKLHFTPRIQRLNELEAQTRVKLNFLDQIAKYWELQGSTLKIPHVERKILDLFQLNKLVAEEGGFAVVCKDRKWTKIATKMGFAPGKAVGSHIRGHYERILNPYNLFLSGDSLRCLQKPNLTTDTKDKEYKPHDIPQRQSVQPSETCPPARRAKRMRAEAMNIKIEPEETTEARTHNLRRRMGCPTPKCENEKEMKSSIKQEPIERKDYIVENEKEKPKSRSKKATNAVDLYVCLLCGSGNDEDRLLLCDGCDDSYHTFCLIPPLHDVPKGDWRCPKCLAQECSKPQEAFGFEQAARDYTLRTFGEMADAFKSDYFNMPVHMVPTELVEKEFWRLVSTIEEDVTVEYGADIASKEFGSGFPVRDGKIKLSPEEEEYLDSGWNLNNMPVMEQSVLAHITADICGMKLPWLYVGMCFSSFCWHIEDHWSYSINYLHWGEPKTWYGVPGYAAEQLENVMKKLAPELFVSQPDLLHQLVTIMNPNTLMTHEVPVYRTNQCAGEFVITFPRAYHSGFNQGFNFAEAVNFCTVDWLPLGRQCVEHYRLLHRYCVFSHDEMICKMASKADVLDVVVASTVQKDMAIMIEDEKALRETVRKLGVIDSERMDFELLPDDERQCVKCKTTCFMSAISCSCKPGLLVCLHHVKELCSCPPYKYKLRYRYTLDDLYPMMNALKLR
In words: Jarid1B in vitro enzyme inhibition assay (TR-FRET). The class given is biochemical. Put shortly:
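Jarid1B (AA 2-751, baculovirus-expressed) at 0.8 nM with 300 nM biotin-H3K4me3 peptide and 2 μM α-ketoglutarate in HEPES pH 7.3 with ascorbate and Fe(II), 30 min at room temperature. Stopped with EDTA; H3K4me1-2 product detected by TR-FRET (665/615 ratio) and IC50 fitted from 11-point dilutions.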
In turn, `Oc1nc(OC2CCc3ccccc32)nc2cnccc12` (stereo not drawn) [Example 192, 2-(2,3-dihydro-1H-inden-1-yloxy)pyrido[3,4-d]pyrimidin-4-ol] showed an IC50 of 1000 to 10000 nM. Then `Oc1nc(OCC2CCc3ccccc32)nc2cnccc12` (stereo not drawn) [Example 190, 2-(2,3-dihydro-1H-inden-1-ylmethoxy)pyrido[3,4-d]pyrimidin-4-ol], with 100 to 1000 nM. As for `O=C(NCCOc1nc(O)c2ccncc2n1)c1ccccc1` [Example 31, N-[2-(4-hydroxypyrido[3,4-d]pyrimidin-2-yl)oxyethyl]benzamide], the IC50 is no more than 100 nM. As to `Oc1nc(OCCOCc2ccccc2)nc2cnccc12` [Example 30, 2-(2-phenylmethoxyethoxy)pyrido[3,4-d]pyrimidin-4-ol], the IC50 lay in the range of 100 to 1000 nM.

Consider `CCOc1nc(O)c2ccncc2n1` [Example 2, 2-ethoxypyrido[3,4-d]pyrimidin-4-ol], for which the IC50 was no more than 100 nM. Then `CC(C)(O)CCOc1nc(O)c2ccncc2n1` [Example 24, 2-(3-hydroxy-3-methylbutoxy)pyrido[3,4-d]pyrimidin-4-ol], with no more than 100 nM. Then `Oc1nc(OCc2cccc3ccccc23)nc2cnccc12` [Example 184, 2-(naphthalen-1-ylmethoxy)pyrido[3,4-d]pyrimidin-4-ol], with 1000 to 10000 nM; and `Oc1nc(OCC2CCOC2)nc2cnccc12` (stereo not drawn) [Example 27, 2-(oxolan-3-ylmethoxy)pyrido[3,4-d]pyrimidin-4-ol], with 100 to 1000 nM.

`CC(C)Oc1nc(O)c2ccncc2n1` [Example 1, 2-propan-2-yloxy-3H-pyrido[3,4-d]pyrimidin-4-one] showed a half-maximal inhibitory concentration (IC50) of 100 to 1000 nM. `N#Cc1cccc(COc2nc(O)c3ccncc3n2)c1` [Example 32, 3-[(4-hydroxypyrido[3,4-d]pyrimidin-2-yl)oxymethyl]benzonitrile] returned an IC50 of 100 to 1000 nM.

In turn, `Oc1nc(OCc2coc3ccccc23)nc2cnccc12` [Example 193, 2-(1-benzofuran-3-ylmethoxy)pyrido[3,4-d]pyrimidin-4-ol] showed a half-maximal inhibitory concentration (IC50) of 100 to 1000 nM. In the case of `Cn1cnc(-c2nccc3c(=O)[nH]cnc23)c1` [Example 198, 8-(1-methylimidazol-4-yl)-3H-pyrido[3,4-d]pyrimidin-4-one] it was 100 to 1000 nM. `Oc1nc(OCc2ccccc2F)nc2cnccc12` [Example 178, 2-[(2-fluorophenyl)methoxy]pyrido[3,4-d]pyrimidin-4-ol] had an IC50 of 1000 to 10000 nM.

As for `Oc1nc(OCC2CCOc3ccccc32)nc2cnccc12` (stereo not drawn) [Example 195, 2-(3,4-dihydro-2H-1-benzopyran-4-ylmethoxy)pyrido[3,4-d]pyrimidin-4-ol], the IC50 is 100 to 1000 nM.

For the compound `Oc1nc(OC2Cc3ccccc3C2)nc2cnccc12` [Example 189, 2-(2,3-dihydro-1H-inden-2-yloxy)pyrido[3,4-d]pyrimidin-4-ol], the IC50 was in the range of 100 to 1000 nM. Then `Oc1nc(OCc2cccc(F)c2F)nc2cnccc12` [Example 181, 2-[(2,3-difluorophenyl)methoxy]pyrido[3,4-d]pyrimidin-4-ol], with 1000 to 10000 nM; and `Cn1ccc(COc2nc(O)c3ccncc3n2)n1` [Example 33, 2-[(1-methylpyrazol-3-yl)methoxy]pyrido[3,4-d]pyrimidin-4-ol], with 1000 to 10000 nM; and `CC(=O)N(C)CCOc1nc(O)c2ccncc2n1` [Example 28, N-[2-(4-hydroxypyrido[3,4-d]pyrimidin-2-yl)oxyethyl]-N-methylacetamide], with 100 to 1000 nM. In the case of `Oc1nc(OCc2ccc3ccccc3c2)nc2cnccc12` [Example 187, 2-(naphthalen-2-ylmethoxy)pyrido[3,4-d]pyrimidin-4-ol] it was 1000 to 10000 nM; in that of `Oc1nc(OCc2cc(F)ccc2F)nc2cnccc12` [Example 182, 2-[(2,5-difluorophenyl)methoxy]pyrido[3,4-d]pyrimidin-4-ol], 1000 to 10000 nM. In the case of `Oc1nc(OC2CCOc3ccccc32)nc2cnccc12` (stereo not drawn) [Example 197, 2-(3,4-dihydro-2H-1-benzopyran-4-yloxy)pyrido[3,4-d]pyrimidin-4-ol] it was 100 to 1000 nM. As to `Oc1nc(OCC2CCc3ccccc3C2)nc2cnccc12` (stereo not drawn) [Example 191, 2-(1,2,3,4-tetrahydronaphthalen-2-ylmethoxy)pyrido[3,4-d]pyrimidin-4-ol], the IC50 fell in the range of 100 to 1000 nM. Regarding `Oc1nc(OCc2ccccc2C(F)(F)F)nc2cnccc12` [Example 177, 2-{[2-(trifluoromethyl)phenyl]methoxy}pyrido[3,4-d]pyrimidin-4-ol], the IC50 fell in the range of 1000 to 10000 nM.

On to `Oc1nc(OCc2ccc(F)cc2)nc2cnccc12` [Example 180, 2-[(4-fluorophenyl)methoxy]pyrido[3,4-d]pyrimidin-4-ol], for which the IC50 was 1000 to 10000 nM.

The compound `Oc1nc(OCc2c(F)cccc2F)nc2cnccc12` [Example 183, 2-[(2,6-difluorophenyl)methoxy]pyrido[3,4-d]pyrimidin-4-ol] came in with an IC50 of 1000 to 10000 nM. In the case of `Oc1nc(OCc2ccccc2-c2ccccc2)nc2cnccc12` [Example 185, 2-[(2-phenylphenyl)methoxy]pyrido[3,4-d]pyrimidin-4-ol] it was 1000 to 10000 nM. Then `Oc1nc(OCc2cccc(F)c2)nc2cnccc12` [Example 179, 2-[(3-fluorophenyl)methoxy]pyrido[3,4-d]pyrimidin-4-ol], with 1000 to 10000 nM; and `Oc1nc(OCCOCC(F)(F)F)nc2cnccc12` [Example 23, 2-[2-(2,2,2-trifluoroethoxy)ethoxy]pyrido[3,4-d]pyrimidin-4-ol], with 100 to 1000 nM; and `CC(CO)COc1nc(O)c2ccncc2n1` (stereo not drawn) [Example 25, 2-(3-hydroxy-2-methylpropoxy)pyrido[3,4-d]pyrimidin-4-ol], with 100 to 1000 nM. Compound `Oc1nc(OC2CCCc3ccccc32)nc2cnccc12` (stereo not drawn) [Example 196, 2-(1,2,3,4-tetrahydronaphthalen-1-yloxy)pyrido[3,4-d]pyrimidin-4-ol] displayed an IC50 of 1000 to 10000 nM. In the case of `Oc1nc(OCC2COc3ccccc32)nc2cnccc12` (stereo not drawn) [Example 194, 2-(2,3-dihydro-1-benzofuran-3-ylmethoxy)pyrido[3,4-d]pyrimidin-4-ol] it was 1000 to 10000 nM; in that of `CC(C)OCCOc1nc(O)c2ccncc2n1` [Example 29, 2-(2-propan-2-yloxyethoxy)pyrido[3,4-d]pyrimidin-4-ol], 100 to 1000 nM; in that of `Oc1nc(OCC2CCCO2)nc2cnccc12` (stereo not drawn) [Example 26, 2-(oxolan-2-ylmethoxy)pyrido[3,4-d]pyrimidin-4-ol], 1000 to 10000 nM.

The compound `Oc1nc(OCC2CCCc3ccccc32)nc2cnccc12` (stereo not drawn) [Example 188, 2-(1,2,3,4-tetrahydronaphthalen-1-ylmethoxy)pyrido[3,4-d]pyrimidin-4-ol] came in with an IC50 of 100 to 1000 nM. Take `Oc1nc(Oc2ccccc2)nc2cnccc12` [Example 34, 2-phenoxypyrido[3,4-d]pyrimidin-4-ol]: the IC50 is no more than 100 nM. Then `Oc1nc(OCc2cccc(-c3ccccc3)c2)nc2cnccc12` [Example 186, 2-[(3-phenylphenyl)methoxy]pyrido[3,4-d]pyrimidin-4-ol], with 1000 to 10000 nM.

These data come from patent publication US10526327B2, “Histone demethylase inhibitors” (CELGENE QUANTICEL RESEARCH, INC., priority 2013, dated 2020).
